From patent US7718781B2, “Hydroxypyridonate and hydroxypyrimidinone chelating agents” (The Regents of the University of California, priority 2001, dated 2010)

Experiments:
[1] = Variable temperature 17O NMR of water transverse relaxation rate (water exchange, q); type: physicochemical
Method: The mean residence water lifetime, τm, is generally determined by measuring the transverse ^17O NMR relaxation rate (R2p) at various temperatures. The variable-temperature ^17O NMR measurement is performed using spectrometers which operate at various magnetic field strengths (2.1 and 9.4 T are typically used) equipped with a 5 mm probe. A D2O external lock and solutions containing 2.6% of the ^17O isotope are used. The observed transverse relaxation rates are calculated from the signal width at half-height. […]
A variable temperature ^17O NMR study of the transverse relaxation rate of H2^17O (R2p) of Gd-TREN-1-Me-3,2-HOPO-TAM, Gd-TREN-1-Me-3,2-HOPO-TAM-PEG-2000 and Gd-TREN-1-Me-3,2-HOPO-TAM-PEG-5000 at 2.1 T was carried out. Analysis of the profiles also allows the number of coordinated water molecules, q to be evaluated. […]
The value of τm, was independently obtained by a variable temperature (VT) ^17O NMR measurement of the water nuclear transverse relaxation rate (R2). The data were measured at 2.1 T (90 MHz for the proton and 12 MHz for 170) and pH≈7. The curve was analyzed in terms of the well established equations of Swift-Connick, rearranged in a form suitable for Gd. […]
Variable-temperature ^17O NMR measurements were recorded on a JEOL EX-400 (9.4 T) spectrometer, equipped with a 5 mm probe, by using D20 for external lock of the magnetic field. […]

[2] = Water proton relaxivity (longitudinal relaxation rate, 20 MHz); type: physicochemical
Method: The efficacy of a paramagnetic complex as a possible MRI contrast agent depends on its ability to catalyze the nuclear magnetic relaxation rate of solvent protons (Lauffer, R. B., Chem. Rev., 87, 901 (1987); Tweedle, M. F.; Kumar, K. In Magnetic Resonance Imaging (MRI) Contrast Agents; Clarke, M. I., Sadler, P. J., Eds.; Springer: Berlin, Germany, Vol. 2, p. 1 (1999); Koenig et al., Prog. NMR Spectrosc., 22:487 (1990)). This property, which is measured in terms in relaxivity, r1p, is defined as the enhancement of the water proton longitudinal relaxation rate induced by a 1 mML^−1 solution of the paramagnetic compound at a given temperature and magnetic field strength (Aime et al., Chem. Soc. Rev., 27:19 (1998)).
In an exemplary assay, the longitudinal water proton relaxation rate at 20 MHz are measured (typically with a NMR spectrometer operating at 0.5 T) with a reproducibility of the T1 data to ±0.5%. Equipment for the control of temperature (with an accuracy of ±0.1° C.) during these measurements are employed.
Water proton relaxation measurements were carried out at 20 MHz with a Stelar Spinmaster Spectrometer (Mede, Pv, Italy) on 0.5-2 mM solutions of the Gd(III) complex. Spin-lattice relaxation times T1 were measured by the standard inversion recovery method with typical 90° pulse width of […], 16 experiments of 4 scans. The reproducibility of the data is ±1%. The temperature was controlled by a Stelar VTC-91 air-flow heater equipped with copper-constantan thermocouple (uncertainty ±0.1° C). The 1/T1 nuclear magnetic relaxation dispersion (NMRD) profiles of water protons were measured from 0.00024 to 1.2 T (corresponding to the range 0.01-50 MHz of proton Larmor frequencies) at 15, 25 and 39° C. using 1.5 mM solutions of the complex on the field-cycling Koenig-Brown relaxometer of the University of Torino (Italy). The temperature was controlled by circulating freon from an external bath and measured by a thermometer inserted into the freon close to the sample. The reproducibilities of the measured T1 values were estimated to be ±2%. […]

[3] = biological target: human serum albumin (HSA) (Homo sapiens, UniProt P02768); assay: Binding to HSA by proton relaxation enhancement (PRE) method
Text: Biomolecule affinity measurements are generally measured by art-recognized methods. For example, the non-covalent interaction between HSA and the metal complexes containing hydrophobic groups have been thoroughly investigated using the well-established proton relaxation enhancement (PRE) method (Caravan, P. E. et al., Chem. Rev. 1999, 99, 2293) that allows both the binding parameters (Ka) and the relaxivity enhancement of the (Metal complex)-HSA adduct to be determined. In this method, the water proton relaxation rates of solutions containing the metal complex and increasing concentrations of the serum protein are measured. […]
The longitudinal relaxation rate (R1) of water protons in a […] solution of Gd-TREN-1-Me-3,2-HOPO-TAM-PEG-5000 was measured with increasing concentrations of HSA (FIG. 19) at 20 MHz and 25° C. […]
An objective of synthesizing the Bn and MOB chelates was to investigate their interaction with HSA. The non-covalent interaction between HSA and the Gd complexes was investigated using the well-established proton relaxation enhancement (PRE) method that allows both the binding parameters (KA) and the relaxivity enhancement of the (Gd^3+ complex)-HSA adduct to be determined. In this method, the water proton longitudinal relaxation rates (R1) of solutions containing the Gd complex and increasing concentrations of the serum protein are measured.

human serum albumin (HSA), sequence (P02768 25-609): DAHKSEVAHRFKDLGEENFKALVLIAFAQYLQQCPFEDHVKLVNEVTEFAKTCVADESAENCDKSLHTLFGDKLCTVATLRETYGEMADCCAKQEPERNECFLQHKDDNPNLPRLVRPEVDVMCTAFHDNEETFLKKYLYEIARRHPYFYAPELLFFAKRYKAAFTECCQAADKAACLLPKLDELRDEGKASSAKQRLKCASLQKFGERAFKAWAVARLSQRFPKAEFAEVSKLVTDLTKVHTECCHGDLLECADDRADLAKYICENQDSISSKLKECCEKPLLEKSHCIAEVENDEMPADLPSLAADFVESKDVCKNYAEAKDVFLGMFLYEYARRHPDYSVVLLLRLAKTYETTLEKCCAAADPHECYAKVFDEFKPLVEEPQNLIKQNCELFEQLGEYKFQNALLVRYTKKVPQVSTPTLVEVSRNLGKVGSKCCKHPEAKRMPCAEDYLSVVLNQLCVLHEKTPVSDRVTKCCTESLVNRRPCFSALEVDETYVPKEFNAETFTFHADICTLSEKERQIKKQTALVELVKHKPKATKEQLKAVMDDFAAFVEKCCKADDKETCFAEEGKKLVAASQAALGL

O=C([O-])CN(CCN(CC(=O)[O-])CC(=O)O)CCN(CC(=O)[O-])CC(=O)O.[Gd+3] [Gd-DTPA]
τM/ns [1]: 303 ns | r1p/mM^−1s^−1 (20 MHz) [2]: 4.3 mM⁻¹ s⁻¹ | KA (HSA)/M^−1 ([3]; HSA): <100 M⁻¹ | r1p^b/mM^−1s^−1 (HSA) ([3]; relaxivity of HSA-bound complex): 4.3 mM⁻¹ s⁻¹
